Results from PubChem BioAssay AID624275 (Broad Institute, 2012).
The source made the active and inactive calls. No rule for the calls is given here.

Tested on: CqsS sensor histidine kinase (Vibrio cholerae)
Experiment: CqsS histidine kinase agonist, Vibrio cholerae WN1103 delta luxQ, luciferase luminescence, confirmatory dose (AID 624275)
Conditions: V. cholerae WN1103 delta luxQ, 6 h; for activation: at 35 µM (top of the series)

Row | Structure (SMILES) | activation | AC40
1 | CCCn1nnnc1NCc1ccccc1Cl | 0.419% (inactive) | 
2 | Cc1ccc(OCCNC(=O)c2cccc(C)c2)cc1 |  | 309 nM
3 | COc1ccccc1NC(=O)COC(=O)c1oc2ccccc2c1C |  | 2010 nM
4 | CCn1c(CC(=O)Nc2cccc(Cl)c2Cl)nnc1SCCOc1ccc(OC)cc1 | 0.37% (inactive) | 
5 | CCCn1nnnc1NCc1ccc(C(C)C)cc1 |  | 28.8 nM
6 | COc1ccccc1NC(=O)COC(=O)c1cc2c(s1)CCC2 |  | 184 nM
7 | CCCn1nnnc1NCc1ccc(N(CC)CC)cc1 |  | 90.1 nM
8 | CCC(C)NC(=O)Cc1ccc(-c2ccccc2)cc1 (stereo not given) |  | 1920 nM
9 | O=C(Cc1ccc(-c2ccccc2)cc1)NC1CCCC1 |  | 118 nM
10 | Cc1c(Cl)cccc1-n1cnc(=O)c2ccccc21 |  | > 35000 nM (inactive)
11 | CCn1nnc(NCc2ccc(C)cc2)n1 | 0.153% (inactive) | 
12 | COc1ccc(Cl)cc1NC(=O)COC(=O)c1ccc(C)o1 |  | 489 nM
13 | CCCn1nnnc1NCc1ccc(N2CCCC2)cc1 |  | 29.2 nM
14 | Cc1ccc2cc3c(NC(=O)c4ccco4)nn(C)c3nc2c1 |  | 4220 nM
15 | COc1ccccc1NC(=O)COC(=O)c1ccc(C)cc1 |  | 2240 nM
16 | O=c1ncn(-c2cccc(Cl)c2)c2ccccc12 |  | 29.4 nM
17 | O=C(Nc1nnc(-c2ccc3c(c2)OCCO3)o1)C1CCCCC1 |  | 2070 nM
18 | CCOc1ccc(Nc2ccc3nonc3c2[N+](=O)[O-])cc1 |  | 596 nM
19 | Cc1ccc(CC(=O)NC2CCCC2)cc1 | 10.3% (inactive) | 
20 | CCn1nnnc1NCc1ccc(N2CCCC2)cc1 |  | 5.71 nM
